Laboratory results: the supplement of paper PMC10307832

Experiments:
Test in all cases: relative viability (nuclei count vs DMSO), 5 days (fraction); higher = more cells survive
Neratinib = compound: CCOc1cc2ncc(C#N)c(Nc3ccc(OCc4ccccn4)c(Cl)c3)c2cc1NC(=O)/C=C/CN(C)C [Neratinib]
In short: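 A plate was accepted only when its control CV was below 25% and the cells had doubled at least once. Viability is defined from nuclear counts as treated wells divided by vehicle wells, with the median taken across plates. That median covers lung cancer cell lines grown in 1536-well plates, dosed by pinning at five √10-spaced library-drug concentrations, and counted in MetaXpress from 4× Hoechst images after 5 days.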

Neratinib + Trametinib = compound: CCOc1cc2ncc(C#N)c(Nc3ccc(OCc4ccccn4)c(Cl)c3)c2cc1NC(=O)/C=C/CN(C)C [Neratinib] + CC(=O)Nc1cccc(-n2c(=O)n(C3CC3)c(=O)c3c(Nc4ccc(I)cc4F)n(C)c(=O)c(C)c32)c1 [Trametinib] (partner 0.02 µM)
In short: (§1)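 Lung cancer cell lines in 1536-well plates were dosed by pin tool the day after seeding, either with one drug alone or with a fixed anchor-drug dose plus five library-drug doses (not always all listed) in √10 steps. After 5 days, cells were fixed and their nuclei stained in one step (final 0.05% Triton X-100, 1% formaldehyde, 1 ug/ml Hoechst), then counted on 4× images. Relative viability is the nuclei count in treated wells divided by that in vehicle wells. Values are medians of duplicate plates.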

Neratinib + Tozasertib = compound: CCOc1cc2ncc(C#N)c(Nc3ccc(OCc4ccccn4)c(Cl)c3)c2cc1NC(=O)/C=C/CN(C)C [Neratinib] + Cc1cc(Nc2cc(N3CCN(C)CC3)nc(Sc3ccc(NC(=O)C4CC4)cc3)n2)n[nH]1 [Tozasertib] (partner 0.1 µM)
In short: as §1

Neratinib + AZD7762 = compound: CCOc1cc2ncc(C#N)c(Nc3ccc(OCc4ccccn4)c(Cl)c3)c2cc1NC(=O)/C=C/CN(C)C [Neratinib] + NC(=O)Nc1cc(-c2cccc(F)c2)sc1C(=O)N[C@H]1CCCNC1 [AZD7762] (partner 0.2 µM)
In short: as §1

Cell Line	relative viability (Neratinib; 0.01 µM)	relative viability (Neratinib; 0.03162 µM)	relative viability (Neratinib; 0.1 µM)	relative viability (Neratinib; 0.3162 µM)	relative viability (Neratinib; 1 µM)	relative viability (Neratinib + Trametinib; first compound 0.01 µM)	relative viability (Neratinib + Trametinib; first compound 0.03162 µM)	relative viability (Neratinib + Trametinib; first compound 0.1 µM)	relative viability (Neratinib + Trametinib; first compound 0.3162 µM)	relative viability (Neratinib + Trametinib; first compound 1 µM)	relative viability (Neratinib + Tozasertib; first compound 0.01 µM)	relative viability (Neratinib + Tozasertib; first compound 0.03162 µM)	relative viability (Neratinib + Tozasertib; first compound 0.1 µM)	relative viability (Neratinib + Tozasertib; first compound 1 µM)	relative viability (Neratinib + AZD7762; first compound 0.01 µM)	relative viability (Neratinib + AZD7762; first compound 0.03162 µM)	relative viability (Neratinib + AZD7762; first compound 0.1 µM)	relative viability (Neratinib + AZD7762; first compound 0.3162 µM)	relative viability (Neratinib + AZD7762; first compound 1 µM)	relative viability (Neratinib + Tozasertib; first compound 0.3162 µM)
NCI-H1666	1	1.03	0.884	0.76	0.78	0.868	0.815	0.712	0.637	0.78	0.615	0.563	0.538	0.541	0.929	0.946	0.783	0.653	0.611	
NCI-H1355	1.11	1.02	0.833	0.933	0.826	0.422	0.421	0.344	0.361	0.349	0.541	0.548	0.482	0.282	0.904	0.754	0.642	0.706	0.538	0.436
HCC-827	1.09	1.13	0.982	0.679	0.183	0.426	0.545	0.561	0.226	0.153	0.414	0.428	0.396	0.136	0.217	0.236	0.132	0.129	0.132	0.268
HARA	1.02	1.05	0.668	0.663	0.644	0.545	0.786	0.516		0.303	0.106	0.104	0.0889	0.0872	0.563	0.293	0.263		0.261	0.11
HCC-366	1.05	1.1		1.01		0.428	0.396	0.342	0.322	0.205	0.102	0.114	0.144	0.0557		0.307	0.147	0.232	0.169	0.0752
NCI-H441	1.32	1.15	0.89		0.529	0.509	0.428	0.356	0.332	0.245	0.611	0.775	0.666	0.334	1.12	1.32	0.958	0.987	0.73	0.384
NCI-H2405	1.06	1.07	0.989	0.98	0.739	0.682	0.612		0.465	0.513	0.808	0.852	0.712	0.547	0.818	0.799	0.751	0.635	0.446	0.72
NCI-H1975	1.07	1.1	0.905	0.58	0.244	0.388	0.542	0.373	0.233	0.165	0.869		0.698	0.106	0.855	0.847	0.619	0.362	0.303	0.324
NCI-H647	1.07	1	0.931		0.483	0.439	0.543	0.366	0.466	0.229	0.281	0.333	0.155	0.174	0.532	0.568	0.466	0.457	0.277	0.195
NCI-H522	0.982		0.876	0.692	0.59	0.756	0.923	0.758	0.599	0.543	0.573	0.608	0.571	0.499	0.781	0.844	0.878	0.804	0.718	0.46
A-427	1.19	1.1	1.01	0.949	0.986	0.835	0.85	0.807	0.637	0.337	0.234	0.246	0.177	0.145	0.811	0.725	0.704	0.729	0.338	0.214
LCLC-97TM1	1.05	1.08	0.955	0.689	0.696	0.187	0.193	0.192		0.112	0.239	0.189	0.298	0.121	0.224	0.251	0.218	0.207	0.304	0.238
HCC-15	1.04	1.15	0.932	0.878	0.886	0.329	0.402	0.362	0.349	0.325	0.673	0.453	0.39	0.174	1.46	1.23	1.18	1.09	1.24	0.341
NCI-H727		0.878	0.639	0.884	0.624	0.398	0.427		0.355	0.332	0.675	0.535	0.5	0.34	0.574	0.568		0.497	0.374	0.53
NCI-H596	1.01	1.03	0.984	1.09	0.817	0.825	0.947	0.765	0.707	0.641	0.862	0.961	0.736	0.601	1.07	1.27	0.745	1.1	0.805	0.857
NCI-H1651	1.04	1.08	0.952	0.907	0.822	0.87		0.793	0.759	0.609	0.743	0.792	0.543	0.312	0.503	0.521	0.416	0.328	0.246	0.58
